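A five-concentration, 48-hour dose response in 96-well plates underlies each endpoint, interpolated linearly between surrounding concentrations. Here, GI50 denotes the concentration required for 50% inhibition of growth.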 Active and inactive are the calls of the source. No stated cut-off is given here; in the data, active = GI50 up to about 1.1 µM and inactive = higher.
How the values were obtained:
Assay in all cases: growth of human tumour cells (NCI), 48 h
A498 = tested on: A498
BT-549 = tested on: BT-549
HOP-92 = tested on: HOP-92
Hs-578T = tested on: Hs-578T
K562 = tested on: K562
KM12 = tested on: KM12
M14 = tested on: M14
NCI-H23 = tested on: NCI-H23
OVCAR-8 = tested on: OVCAR-8
RPMI-8226 = tested on: RPMI-8226
SK-MEL-5 = tested on: SK-MEL-5
SN12C = tested on: SN12C
SNB-19 = tested on: SNB-19
T47D = tested on: T47D
TK-10 = tested on: TK-10
SR = tested on: SR

Compound | GI50 (A498) | GI50 (BT-549) | GI50 (HOP-92) | GI50 (Hs-578T) | GI50 (K562) | GI50 (KM12) | GI50 (M14) | GI50 (NCI-H23) | GI50 (OVCAR-8) | GI50 (RPMI-8226) | GI50 (SK-MEL-5) | GI50 (SN12C) | GI50 (SNB-19) | GI50 (T47D) | GI50 (TK-10) | GI50 (SR)
CC(C)=C1C2CC3(C)CCC2(C)CCC13.CC1=CCC2C3(C)CCC2(C(C)C)C1C3 (centres undefined) | 34 µM (inactive) | 19.8 µM (inactive) | 27.7 µM (inactive) | 18.4 µM (inactive) | 31.4 µM (inactive) | 19.5 µM (inactive) | 20.1 µM (inactive) | 38.3 µM (inactive) | 17.3 µM (inactive) | 24.9 µM (inactive) | 10 µM (inactive) | 18.2 µM (inactive) | 18.4 µM (inactive) | 36.7 µM (inactive) | 25.5 µM (inactive) | 
C/C(=N\O)C1CC(CC(=O)O)C1(C)C (centres undefined) | > 100 µM (inactive) | > 100 µM (inactive) | > 100 µM (inactive) | > 100 µM (inactive) | > 100 µM (inactive) | > 100 µM (inactive) | > 100 µM (inactive) | > 100 µM (inactive) | > 100 µM (inactive) | > 100 µM (inactive) | > 100 µM (inactive) | > 100 µM (inactive) | > 100 µM (inactive) | > 100 µM (inactive) | > 100 µM (inactive) | > 100 µM (inactive)
Nc1cc2[nH]c(=O)c3cc(Cl)ccc3c2cc1Cl |  | > 100 µM (inactive) |  | 39.1 µM (inactive) | 23 µM (inactive) | 15.1 µM (inactive) | 36.8 µM (inactive) | 15.8 µM (inactive) | 3 µM (inactive) | 0.514 µM (active) | 12.1 µM (inactive) | 10.2 µM (inactive) | 8.47 µM (inactive) | 12.3 µM (inactive) | 11.8 µM (inactive) | 2.44 µM (inactive)
CC(=O)OC/C=C\Cn1ncc(=O)[nH]c1=O | 16.4 µM (inactive) |  | 15.8 µM (inactive) | 27.7 µM (inactive) | 23 µM (inactive) | 17 µM (inactive) | 19 µM (inactive) | 13.6 µM (inactive) | 23.7 µM (inactive) | 7.71 µM (inactive) | 12.6 µM (inactive) | 22.9 µM (inactive) | 33.4 µM (inactive) | 22.1 µM (inactive) |  | 
CN(N)c1nc(N)c(C#N)c(C#N)c1C#N |  | > 10 µM (inactive) | > 10 µM (inactive) | > 10 µM (inactive) | > 10 µM (inactive) | > 10 µM (inactive) | > 10 µM (inactive) | > 10 µM (inactive) | > 10 µM (inactive) | > 10 µM (inactive) | > 10 µM (inactive) | > 10 µM (inactive) | > 10 µM (inactive) | > 10 µM (inactive) | > 10 µM (inactive) | > 10 µM (inactive)
COc1ccc(N[S+]([O-])c2ccc(-c3ccccc3)cc2)cc1 (centres undefined) |  |  |  | 0.667 µM (active) | > 100 µM (inactive) | 70.3 µM (inactive) | 86.1 µM (inactive) | 46 µM (inactive) | 29.5 µM (inactive) | > 100 µM (inactive) | > 100 µM (inactive) | > 100 µM (inactive) | 41.8 µM (inactive) |  | > 100 µM (inactive) | > 100 µM (inactive)
CC1(C)[C@@H]2C[C@H]1C(Cc1ccccc1C[C@H]1c3cc(-c4ccccn4)ncc3[C@H]3C[C@@H]1C3(C)C)c1cc(-c3ccccn3)ncc12 (some centres undefined) | 0.673 µM (active) | 0.716 µM (active) |  |  | 0.356 µM (active) | 0.389 µM (active) | 0.28 µM (active) | 0.726 µM (active) | 0.378 µM (active) | 0.348 µM (active) | 0.0834 µM (active) | 0.479 µM (active) | 0.611 µM (active) | 0.294 µM (active) | 0.638 µM (active) | 0.153 µM (active)
C[Si](C)(C)OC1(C#N)c2ccccc2CCCC12CCCC2 (centres undefined) | 46.6 µM (inactive) | > 100 µM (inactive) | 29.1 µM (inactive) | 62.1 µM (inactive) | 34.7 µM (inactive) | 42.8 µM (inactive) | 48.3 µM (inactive) | 45.7 µM (inactive) | 50.9 µM (inactive) | 21.6 µM (inactive) | 24.1 µM (inactive) | 59.4 µM (inactive) | 44 µM (inactive) | 24.7 µM (inactive) | > 100 µM (inactive) | 29.6 µM (inactive)
CCN1C(=O)C(=Cc2ccc(-c3ccccc3)cc2)C(=O)N(CC)C1=S |  | > 100 µM (inactive) | > 100 µM (inactive) | > 100 µM (inactive) | 38.5 µM (inactive) | > 100 µM (inactive) | > 100 µM (inactive) | > 100 µM (inactive) | > 100 µM (inactive) | > 100 µM (inactive) | > 100 µM (inactive) | > 100 µM (inactive) | > 100 µM (inactive) | > 100 µM (inactive) | > 100 µM (inactive) | 
